Measured values taken from patent US20240208954A1, “OXADIAZOLE COMPOUND, PREPARATION METHOD THEREFOR, PHARMACEUTICAL COMPOSITION AND USE THEREOF” (SHANGHAI INSTITUTE OF MATERIA MEDICA, CHINESE ACADEMY OF …, priority 2020, published 2024).
Entries after “also recorded” stand apart in the source; their conditions may differ.

Columns and labels:
[1] = test system: MCD-HFD induced NASH model; test: Pharmacological activity test in MCD-HFD induced NASH model; assay type: in vivo, C57BL/6 mice
Procedure: Male C57BL/6 mice were fed with MCD-HFD diet to induce the NASH model, and 4 weeks after modeling, the mice were randomly divided into […]: normal diet control group (Control, n=9), model control group (Model, n=10), positive compound BAF312 group (0.3 mg/kg, n=10), low dose group (0.3 mg/kg, n=10), medium dose group (3 mg/kg, n=10), and high dose group (10 mg/kg, n=10), administered by gavage in a volume of 5 mL/kg once a day. The animals were monitored for food intake and body weight during administration; 4 weeks after administration, the mice were sacrificed by dislocation after blood was taken via the posterior ophthalmic plexus, livers and spleens were weighed, part the liver was fixed in 4% paraformaldehyde, and all tissues and serum were stored at −80° C.

[2] = test system: GAN diet-induced NASH mouse model; test: In vivo anti-obesity, insulin resistance, NASH pharmacological activity test; set-up: species or system C57BL/6 mice
Description: In this experiment, we investigated the effects of long-term oral administration of compound A1 on obesity, insulin resistance, hepatic lipid accumulation, inflammation and fibrosis in mice with a triple phenotype of obesity, insulin resistance and NASH induced by high fat, high cholesterol and high fructose (Gubra amylin, GAN).
Animal experiment: Male C57BL/6 mice were fed with GAN diet to induce the NASH model, and 12 weeks after modeling, the mice were randomly divided into 3 groups: low-fat diet control group (LFD, n=6), model control group (Model, n=10), and A1 group (10 mg/kg, n=10), and administered by gavage at a dose of 10 mg/kg and a volume of 10 mL/kg, once a day. During the period of administration, the food intake and body weight of animals were monitored; after 10 weeks of administration, glucose tolerance test (GTT) and insulin tolerance test (ITT) were performed; after 11 weeks of administration, fasting glucose and insulin were measured; after 12 weeks of administration, core body temperature and energy metabolism were measured; after 15 weeks of administration, body composition of mice was measured, and mice were sacrificed by dislocation after blood sampling via the posterior ocular venous plexus, and liver, subcutaneous fat, epididymal fat and brown fat were weighed, part the liver was fixed in 4% paraformaldehyde, and all tissues and serum were stored at −80° C. This experiment evaluated whether the compounds have the effect of weight loss by detecting energy metabolism, body composition, and fat weight of mice; whether the compounds have the effect of improving insulin resistance by GTT, ITT, detecting random blood glucose, fasting blood glucose and fasting insulin, and calculating HOMA-IR index; whether the compounds have the effect of […] by detecting serum liver function indexes ALT, AST, triglyceride, total cholesterol (T-CHO), LDL-C, HDL-C levels in serum, triglyceride, T-CHO, and hydroxyproline (characteristic amino acids of collagen) levels in liver, and by measuring mRNA expression levels of fatty acid ab initio synthesis and transport related genes (Srebp1c, Sed1, Fasn, Acaca, Cd36),β-oxidative metabolic pathways (Ppara, Cyp4A1,Cpt1b,Acot1,Acox1), inflammation related genes (Tnfa, Il1b, Casp1, Nlrp3, Pycard, Panx1, Cel2, Cel3) and fibrosis-related genes (Asma, Tgfb, Col1A1, Col3A1 , Col4A1 , Col4a2, Col5a2) and liver pathological changes (H&E staining, Oil Red O staining and Sirius Scarlet staining) and other indicators to evaluate whether the compounds have the effect of alleviating the disorder of lipid metabolism, inflammation and fibrosis in the pathological state of NASH.

[3] = test system: CCI4-induced liver fibrosis model; test: Pharmacological activity test in carbon tetrachloride induced liver fibrosis model; assay type: in vivo, C57BL/6 mice
Procedure: Male C57BL/6 mice were injected intraperitoneally with 5% CCI4(dissolved in corn oil) at 5 mL/kg twice a week to induce liver fibrosis model. Three weeks after modeling, mice were randomly divided into five groups: model control group (Model, n=12), positive compound FTY720 group (2 mg/kg, n=9), positive compound OCA group (30 mg/kg, n=10), low dose group (3 mg/kg), high dose group (10 mg/kg), FTY720 was administered by intraperitoneal injection and the rest of the groups were administered by oral gavage, once a day. After 5 weeks of administration, the mice were sacrificed by dislocation after blood was taken via the posterior ophthalmic plexus, liver and spleen were taken and weighed. Part of the liver was fixed in 4% paraformaldehyde, and part of the liver and serum were stored at −80° C. 10 mice from the same litter were injected intraperitoneally with the same dose of corn oil throughout the experiment as a systemic control.

[4] = high-dose group (10 mg/kg), gavage once a day, 4 weeks
[5] = 10 mg/kg gavage once a day, 15 weeks
[6] = 10 mg/kg gavage once a day, after 10 weeks
[7] = 10 mg/kg gavage once a day, after 11 weeks
[8] = 10 mg/kg gavage once a day, vs Model group
[9] = H&E-stained liver pathology sections, 10 mg/kg
[10] = liver, 10 mg/kg gavage once a day
[11] = overall statement, long-term administration

CC(C)Oc1ccc(-c2nc(-c3ccc(CN4CC(C(=O)O)C4)c4ccccc34)no2)cc1C#N.Cl [Compound A1, 1-((4-(5-(3-cyano-4-isopropoxyphenyl)-1,2,4-oxadiazol-3-yl)naphthalen-1-yl)methyl) azetidine-3-carboxylic acid hydrochloric acid]
hepatic lipid accumulation as well as inflammatory infiltration ([1]; FIG. 10 legend: at high/medium/low doses): alleviated
hepatic lipid accumulation and inflammatory infiltration ([1]; H&E-stained liver sections, high-dose (10 mg/kg)): effective in alleviating
body weight ([1]; gavage once a day, 4 weeks): without affecting
TG accumulation in the liver ([1]; high-dose group (10 mg/kg)): significantly alleviating
serum ALT levels [1, 4]: significantly reduced
serum AST levels [1, 4]: significantly reduced
expression levels of fibrosis-related genes (Asma, Tgfb, Col1a1) ([1]; high/medium-dose (10/3 mg/kg)): significantly downregulated; also recorded: downregulates
hydroxyproline levels in the liver ([1]; high/medium-dose (10/3 mg/kg), to different degrees): effective in alleviating; also recorded: alleviated
mRNA expression of liver inflammation-related genes (Tnfa, Il1b, Nlrp3, Ccl2) ([1]; high/medium/low doses (10/3/0.3 mg/kg), to different degrees): significantly downregulated
HOMA-IR index ([2]; 10 mg/kg gavage once a day): significantly reduced
energy metabolism and thermogenesis ([2]; 10 mg/kg gavage once a day): increasing energy metabolism and promoting thermogenesis
food intake ([2]; 10 mg/kg gavage once a day): without affecting
liver T-CHO [2, 5]: significantly reduced
liver hydroxyproline [2, 5]: significantly reduced
liver triglycerides [2, 5]: significantly reduced
liver weight [2, 5]: significantly reduced
liver-to-body ratio [2, 5]: significantly reduced
serum ALT [2, 5]: significantly reduced
serum AST [2, 5]: significantly reduced
serum HDL-C [2, 5]: significantly reduced
serum LDL-C [2, 5]: significantly reduced
serum T-CHO [2, 5]: significantly reduced
serum triglycerides [2, 5]: significantly reduced
glucose tolerance (GTT) [2, 6]: significantly improved
insulin sensitivity (ITT) [2, 6]: significantly improved
fasting glucose [2, 7]: significantly reduced
fasting insulin [2, 7]: significantly reduced
body fat content [2, 8]: reduced
body weight gain [2, 8]: significantly slowed down
NAS scores [2, 9]: significantly decreased
lipid accumulation in the liver [2, 9]: ameliorating (but not significant) effect
liver ballooning degeneration and inflammation [2, 9]: significantly alleviated
liver lipid accumulation ([2]; Oil Red O stained sections, mainly by reducing lipid droplet size, 10 mg/kg): significantly reduced
liver collagen deposition ([2]; Sirius Scarlet stained sections, 10 mg/kg): significantly reduced
mRNA expression of fatty acid oxidation-related genes (Ppara, Cyp4A1, Acot1, Acox1) [2, 10]: significantly upregulated
mRNA expression of fibrosis-related genes (Asma, Tgfb, Col1A1, Col3A1, Col5a2) [2, 10]: downregulated
mRNA expression of inflammation genes (Tnfa, Il1b, Casp1, Pycard, Ccl2, Ccl3) [2, 10]: downregulated
serological and hepatic biochemical indexes ([2]; overall statement, FIG. 3): improved
hepatic lipid metabolism disorders, inflammation and fibrosis ([2]; overall statement, FIG. 4): improved
effect on NASH [2, 11]: significant alleviating effect
insulin resistance (symptoms) [2, 11]: significantly alleviate; also recorded: alleviated
obesity (symptoms) [2, 11]: significantly alleviate; also recorded: alleviated
hydroxyproline content in the liver ([3]; high dose (10 mg/kg), 10 mg/kg): significantly alleviated; also recorded: alleviating
mRNA expression of liver fibrosis-related genes (Tgfb, Col1a1) ([3]; high dose (10 mg/kg), 10 mg/kg): significantly downregulated; also recorded: downregulates
liver and spleen organ weights ([3]; oral gavage once a day, 5 weeks): without affecting
ALT levels in serum ([3]; oral gavage once a day, 5 weeks, 3 and 10 mg/kg groups): significantly reduced
collagen deposition in the liver ([3]; pathological section analysis): significantly reduced
